PubChem BioAssay AID2060896 (Molecular Pharmacology Branch, DTP, NCI, 2025)
Blank lines part the entries; values can stand above or below the molecule they belong to.

System: 941728-121-R-J1-PDC complex spheroid viability
Assay: Anticancer human tumor 941728-121-R-J1-PDC patient-derived lung adenocarcinoma cell line growth inhibition [RAS]
Details: for IC50: curve of first compound; for viability, T/C: stronger effect = lower value
Procedure, shortened: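 Multi-cell-type spheroids: tumor cells plus HUVEC endothelial cells and mesenchymal stem cells. RAS-pathway inhibitors were combined with targeted agents, each dosed in half-log steps down from clinical Cmax, or from 10 microM when Cmax was unknown.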
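Also: spheroids exposed to compounds for 7 days before readout.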
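For viability, T/C in this document: 100% = DMSO vehicle control viability.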

IC50 (second compound 0.00316 µM): < 0.949 nM
IC50 (second compound 0.01 µM): < 0.949 nM
IC50 (second compound 0.0316 µM): < 0.949 nM
IC50 (second compound 0.1 µM): < 0.949 nM
IC50 (second compound 0.316 µM): < 0.949 nM
IC50 (second compound 1 µM): < 0.949 nM
SMILES: CCc1c2c(nc3ccc(O)cc13)-c1cc3c(c(=O)n1C2)COC(=O)[C@]3(O)CC + C=CC(=O)N1CCN(c2nc(OCC3CCCN3C)nc3c(F)c(-c4nc(N)cc(C)c4C(F)(F)F)c(Cl)cc23)C(C)C1
viability, T/C (second compound 0.00316 µM, first compound 0.000949 µM): 21.6%
viability, T/C (second compound 0.00316 µM, first compound 0.003 µM): 18.7%
viability, T/C (second compound 0.00316 µM, first compound 0.00949 µM): 14.7%
viability, T/C (second compound 0.00316 µM, first compound 0.03 µM): 13.7%
viability, T/C (second compound 0.00316 µM, first compound 0.0949 µM): 12.1%
viability, T/C (second compound 0.00316 µM, first compound 0.3 µM): 8.13%
viability, T/C (second compound 0.01 µM, first compound 0.000949 µM): 18.9%
viability, T/C (second compound 0.01 µM, first compound 0.003 µM): 15.6%
viability, T/C (second compound 0.01 µM, first compound 0.00949 µM): 20.6%
viability, T/C (second compound 0.01 µM, first compound 0.03 µM): 13.1%
viability, T/C (second compound 0.01 µM, first compound 0.0949 µM): 11.4%
viability, T/C (second compound 0.01 µM, first compound 0.3 µM): 7.95%
viability, T/C (second compound 0.0316 µM, first compound 0.000949 µM): 18.3%
viability, T/C (second compound 0.0316 µM, first compound 0.003 µM): 16.5%
viability, T/C (second compound 0.0316 µM, first compound 0.00949 µM): 13.8%
viability, T/C (second compound 0.0316 µM, first compound 0.03 µM): 15.1%
viability, T/C (second compound 0.0316 µM, first compound 0.0949 µM): 11.7%
viability, T/C (second compound 0.0316 µM, first compound 0.3 µM): 7.67%
viability, T/C (second compound 0.1 µM, first compound 0.000949 µM): 16.3%
viability, T/C (second compound 0.1 µM, first compound 0.003 µM): 17%
viability, T/C (second compound 0.1 µM, first compound 0.00949 µM): 15.1%
viability, T/C (second compound 0.1 µM, first compound 0.03 µM): 12.6%
viability, T/C (second compound 0.1 µM, first compound 0.0949 µM): 12.4%
viability, T/C (second compound 0.1 µM, first compound 0.3 µM): 8.11%
viability, T/C (second compound 0.316 µM, first compound 0.000949 µM): 18.3%
viability, T/C (second compound 0.316 µM, first compound 0.003 µM): 15.8%
viability, T/C (second compound 0.316 µM, first compound 0.00949 µM): 13.7%
viability, T/C (second compound 0.316 µM, first compound 0.03 µM): 12.2%
viability, T/C (second compound 0.316 µM, first compound 0.0949 µM): 11.7%
viability, T/C (second compound 0.316 µM, first compound 0.3 µM): 6.82%
viability, T/C (second compound 1 µM, first compound 0.000949 µM): 17.1%
viability, T/C (second compound 1 µM, first compound 0.003 µM): 15.4%
viability, T/C (second compound 1 µM, first compound 0.00949 µM): 13.8%
viability, T/C (second compound 1 µM, first compound 0.03 µM): 13.7%
viability, T/C (second compound 1 µM, first compound 0.0949 µM): 14.8%
viability, T/C (second compound 1 µM, first compound 0.3 µM): 7.83%

IC50 (second compound 0.0316 µM): 22.3 nM
IC50 (second compound 0.1 µM): 15.5 nM
IC50 (second compound 0.316 µM): 5.51 nM
IC50 (second compound 1 µM): < 3.16 nM
IC50 (second compound 3.16 µM): < 3.16 nM
IC50 (second compound 10 µM): < 3.16 nM
SMILES: Nc1ccn(C2OC(CO)C(O)C2(F)F)c(=O)n1 (stereo unspecified) + C#Cc1c(F)ccc2cc(O)cc(-c3ncc4c(N5CC6CCC(C5)N6)nc(OCC56CCCN5CC(F)C6)nc4c3F)c12
viability, T/C (second compound 0.0316 µM, first compound 0.00316 µM): 71.5%
viability, T/C (second compound 0.0316 µM, first compound 0.01 µM): 54%
viability, T/C (second compound 0.0316 µM, first compound 0.0316 µM): 49.6%
viability, T/C (second compound 0.0316 µM, first compound 0.1 µM): 43.4%
viability, T/C (second compound 0.0316 µM, first compound 0.316 µM): 46.3%
viability, T/C (second compound 0.0316 µM, first compound 1 µM): 42.6%
viability, T/C (second compound 0.1 µM, first compound 0.00316 µM): 72.8%
viability, T/C (second compound 0.1 µM, first compound 0.01 µM): 55.1%
viability, T/C (second compound 0.1 µM, first compound 0.0316 µM): 41.7%
viability, T/C (second compound 0.1 µM, first compound 0.1 µM): 38.3%
viability, T/C (second compound 0.1 µM, first compound 0.316 µM): 34.5%
viability, T/C (second compound 0.1 µM, first compound 1 µM): 38.2%
viability, T/C (second compound 0.316 µM, first compound 0.00316 µM): 51%
viability, T/C (second compound 0.316 µM, first compound 0.01 µM): 52.6%
viability, T/C (second compound 0.316 µM, first compound 0.0316 µM): 38.3%
viability, T/C (second compound 0.316 µM, first compound 0.1 µM): 35.5%
viability, T/C (second compound 0.316 µM, first compound 0.316 µM): 37.6%
viability, T/C (second compound 0.316 µM, first compound 1 µM): 33.1%
viability, T/C (second compound 1 µM, first compound 0.00316 µM): 33.9%
viability, T/C (second compound 1 µM, first compound 0.01 µM): 31.9%
viability, T/C (second compound 1 µM, first compound 0.0316 µM): 31.6%
viability, T/C (second compound 1 µM, first compound 0.1 µM): 33.2%
viability, T/C (second compound 1 µM, first compound 0.316 µM): 36.8%
viability, T/C (second compound 1 µM, first compound 1 µM): 30.3%
viability, T/C (second compound 3.16 µM, first compound 0.00316 µM): 30.4%
viability, T/C (second compound 3.16 µM, first compound 0.01 µM): 28.7%
viability, T/C (second compound 3.16 µM, first compound 0.0316 µM): 28.5%
viability, T/C (second compound 3.16 µM, first compound 0.1 µM): 28.3%
viability, T/C (second compound 3.16 µM, first compound 0.316 µM): 26.1%
viability, T/C (second compound 3.16 µM, first compound 1 µM): 27.7%
viability, T/C (second compound 10 µM, first compound 0.00316 µM): 23.6%
viability, T/C (second compound 10 µM, first compound 0.01 µM): 21.3%
viability, T/C (second compound 10 µM, first compound 0.0316 µM): 20.8%
viability, T/C (second compound 10 µM, first compound 0.1 µM): 18%
viability, T/C (second compound 10 µM, first compound 0.316 µM): 20.2%
viability, T/C (second compound 10 µM, first compound 1 µM): 20.1%

IC50 (second compound 0.000949 µM): < 3.16 nM
IC50 (second compound 0.003 µM): < 3.16 nM
IC50 (second compound 0.00949 µM): < 3.16 nM
IC50 (second compound 0.03 µM): < 3.16 nM
IC50 (second compound 0.0949 µM): < 3.16 nM
IC50 (second compound 0.3 µM): < 3.16 nM
SMILES: C=CC(=O)N1CCN(c2nc(OCC3CCCN3C)nc3c(F)c(-c4nc(N)cc(C)c4C(F)(F)F)c(Cl)cc23)C(C)C1 (stereo unspecified) + CCn1c(-c2cc(N3CCN(C)CC3)cnc2C(C)OC)c2c3cc(ccc31)-c1csc(n1)CC(NC(=O)C1CC1C)C(=O)N1CCCC(N1)C(=O)OCC(C)(C)C2
viability, T/C (second compound 0.000949 µM, first compound 0.00316 µM): 20.1%
viability, T/C (second compound 0.000949 µM, first compound 0.01 µM): 19.7%
viability, T/C (second compound 0.000949 µM, first compound 0.0316 µM): 14.8%
viability, T/C (second compound 0.000949 µM, first compound 0.1 µM): 18.7%
viability, T/C (second compound 0.000949 µM, first compound 0.316 µM): 20.2%
viability, T/C (second compound 0.000949 µM, first compound 1 µM): 16.2%
viability, T/C (second compound 0.003 µM, first compound 0.00316 µM): 16.9%
viability, T/C (second compound 0.003 µM, first compound 0.01 µM): 15.7%
viability, T/C (second compound 0.003 µM, first compound 0.0316 µM): 14.5%
viability, T/C (second compound 0.003 µM, first compound 0.1 µM): 17.2%
viability, T/C (second compound 0.003 µM, first compound 0.316 µM): 19.6%
viability, T/C (second compound 0.003 µM, first compound 1 µM): 14.6%
viability, T/C (second compound 0.00949 µM, first compound 0.00316 µM): 17.3%
viability, T/C (second compound 0.00949 µM, first compound 0.01 µM): 16.4%
viability, T/C (second compound 0.00949 µM, first compound 0.0316 µM): 17.7%
viability, T/C (second compound 0.00949 µM, first compound 0.1 µM): 18%
viability, T/C (second compound 0.00949 µM, first compound 0.316 µM): 15.6%
viability, T/C (second compound 0.00949 µM, first compound 1 µM): 14.8%
viability, T/C (second compound 0.03 µM, first compound 0.00316 µM): 17.7%
viability, T/C (second compound 0.03 µM, first compound 0.01 µM): 18.3%
viability, T/C (second compound 0.03 µM, first compound 0.0316 µM): 17.5%
viability, T/C (second compound 0.03 µM, first compound 0.1 µM): 16.3%
viability, T/C (second compound 0.03 µM, first compound 0.316 µM): 14%
viability, T/C (second compound 0.03 µM, first compound 1 µM): 17.8%
viability, T/C (second compound 0.0949 µM, first compound 0.00316 µM): 15.6%
viability, T/C (second compound 0.0949 µM, first compound 0.01 µM): 16.7%
viability, T/C (second compound 0.0949 µM, first compound 0.0316 µM): 16.5%
viability, T/C (second compound 0.0949 µM, first compound 0.1 µM): 17.7%
viability, T/C (second compound 0.0949 µM, first compound 0.316 µM): 14.9%
viability, T/C (second compound 0.0949 µM, first compound 1 µM): 19.4%
viability, T/C (second compound 0.3 µM, first compound 0.00316 µM): 17%
viability, T/C (second compound 0.3 µM, first compound 0.01 µM): 17.2%
viability, T/C (second compound 0.3 µM, first compound 0.0316 µM): 17.1%
viability, T/C (second compound 0.3 µM, first compound 0.1 µM): 14.5%
viability, T/C (second compound 0.3 µM, first compound 0.316 µM): 18.5%
viability, T/C (second compound 0.3 µM, first compound 1 µM): 18.2%
